Data set [1] has as its system 2.2.15 cells. Put plainly: Toxicity in 2.2.15 cells, neutral red dye uptake. The format is cell-based, human. On the procedure:
Cells of 2.2.15 were grown to confluence in 96-well flat-bottomed tissue culture plates and treated with compounds (in 0.2 mL culture medium/well) as described above. Four concentrations of each compound were assayed, each in triplicate cultures, in 3- to 10-fold steps. Untreated control cultures were maintained on each 96-well plate. On each 96-well plate, wells containing no cells were used to correct for light scattering.

Data set [2] deals with HCMV. Nature of the data set: HCMV semi-automated CPE-inhibition assay in human foreskin fibroblast cells. The data set is classed as cell-based, human cytomegalovirus. The conditions noted are these: Table II.
The subject of data set [3] is human foreskin fibroblast cells. Nature of the data set: Toxicity run with the HCMV assay, human foreskin fibroblast cells. The format is cell-based. As to conditions: Table II. Here is the method: (§1) [table] […] The media from the wells is then aspirated and 2 mL of each drug concentration is then added to each well. The cells are then incubated in a CO2 incubator at 37° C. for 72 h. At the end of this time, the media-drug solution is removed and the cells washed. […] The cell-media mixture is then pipetted up and down vigorously to break up the cell suspension, and 0.2 mL of the mixture is added to 9.8 mL of Isoton III and counted using a Coulter Counter. Each sample is counted three times with three replicate wells per sample. The procedure for plating cells and adding drug is the same as for the MTT Assay. After drug addition, the plates are incubated for seven days in a CO2 incubator at 37° C. […] This is incubated in the CO2 incubator for one hour. The dye is aspirated and the cells are washed using a Nunc Plate Washer. […] The plates are rotated for 15 minutes and the optical densities are read at 550 nm on a plate reader.

The test system of data set [4] is EBV. Put plainly: EBV assay: superinfection of Raji or Daudi cells with P3HR-1, immunofluorescence for EA and VCA. The format is cell-based, Epstein-Barr virus. As to conditions: Table II. From the text: There are two prototypes of infectious EBV. One is exemplified by the virus derived from supernatant fluids of the P3HR-1cell line. This cell line produces nontransforming virus that causes the production of early antigen (EA) after primary infection or superinfection of B cell lines. The other prototype is exemplified by the B-95-8 virus. This virus immortalized cord blood lymphocytes and induced tumors in marmosets.
The virus used in our assays is P3HR-1.
Ramos is an exceptional B cell line derived from Burkitt's lymphoma tumor but containing no detectable EBV genome copies and is EBNA negative. Ramos/AW was obtained by in vitro infection of Ramos with the P3HR-1 virus and contains one resident EBV genome copy/cell. Raji is a Burkitt's lymphoma cell line containing 60 EBV genomes/cell, and will be the primary cell used for screening antiviral activity against EBV EA expression. Daudi is a low level producer that contains 152 EBV genome copies/cell. It spontaneously expresses EBV EA in 0.25%-0.5% of the cells. It will be used in follow-up studies to confirm activity. These cell lines respond to superinfection by EBV by expressing EA(D), EA(R), and VCA. All cell lines are maintained in RPMI-1640 medium supplemented by 10% FCS, L-glutamine and 100 μg/mL gentamicin. The cultures are fed twice weekly and the cell concentration adjusted to 3×10^5/mL. The cells are kept at 37° C. in a humidified atmosphere with 5% CO2.
Cells are infected with the P3HR-1 strain of EBV and the drugs to be tested are added after adsorption (45 minutes at 37° C.) and washing of the cell cultures. The cultures are incubated for two days in complete medium to allow viral gene expression. Following the 48 hr incubation period, the number of cells of each sample are counted and smears made. Monoclonal antibodies to the different EA components and VCA are then added to the cells incubated and washed. This is followed by a fluorescein conjugated rabbit anti-mouse Ig antibody; and the number of fluorescence positive cells in the smears are counted. The total number of cells in the cultures positive for EA or VCA are then calculated and compared.

The subject of data set [5] is Raji or Daudi cells. Nature of the data set: Toxicity run with the EBV assay. The data set is classed as cell-based, human. The conditions noted are these: Table II. From the text: IC50 (50% inhibitory concentration) is the concentration required to inhibit cell proliferation by 50%
Data set [6] deals with VZV. Put plainly: VZV plaque reduction assay in human foreskin fibroblast cells. The data set is classed as cell-based, varicella zoster virus. The conditions noted are these: Table II. Here is the method:
Two days prior to use, HFF cells are plated into six-well plates and incubated at 37° C. with 5% CO2 and 90% humidity. On the date of assay, the drug is made up at twice the desired concentration in 2x MEM and then serially diluted 1:5 in 2x MEM using six concentrations of drug. The initial starting concentration is usually 200 gg/mL down to 0.06 μg/mL. The virus to be used is diluted in MEM containing 10% FBS to a desired concentration which will give 20-30 plaques per well. The media is then aspirated from the wells and 0.2 mL of virus is added to each well in duplicate with 0.2 mL of media being added to drug toxicity wells. The plates are then incubated for one hour with shaking every fifteen minutes. After the incubation period, an equal amount of 1% agarose was added to an equal volume of each drug dilution. This will give final drug concentrations beginning with 100 μg/mL and ending with 0.03 μg/mL and a final agarose overlay concentration of 0.5%. The drug agarose mixture is applied to each well in 2 mL volume and the plates then incubated for three days, after which the cells were stained with a 1.5% solution of neutral red. At the end of 4-6hr incubation period, the stain is aspirated, and plaques counted using a stereomicroscope at lOx magnification.
The procedure is essentially the same as for the HSV plaque assay described above with two exceptions:
1. After addition of the drug, the plates are incubated for ten days.
2. On days three and six, an additional 1 mL overlay with equal amounts of 2x MEM and 1% agarose are added.
A general note: Plaques are areas of infected cells; plaque reduction assays count them against a control.

In data set [7] the test system is human foreskin fibroblast cells. Put plainly: Toxicity run with the VZV assay, human foreskin fibroblast cells. The data set is classed as cell-based. The conditions noted are these: Table II. Here is the method:
as §1

In data set [8] the test system is HBV. Nature of the data set: HBV replication in cultures of 2.2.15 cells, extracellular HBV virion DNA (primary assay). The conditions noted are these: for activity in primary assay (HBV virion): text summary of Table IV.
Procedure: Both intracellular and extracellular HBV DNA are analyzed in order to (i) allow for verification of compound efficacy and (ii) provide possible data on the target site in the HBV replication pathway for the compound from examination of the pattern of viral replicative forms. The culture medium is changed daily during the treatment period to (i) prevent the buildup of potentially toxic metabolites derived from test compounds and (ii) provide an analysis of HBV virion production during discrete 24-hour intervals which enables a quantitative comparison of any effect on virion production.
The analysis of HBV DNA is performed using blot hybridization techniques (Southern and slot blot) and [^32P]-labeled HBV-specific probes. HBV DNA levels are measured by comparison to known amounts of HBV DNA standards applied to every nitrocellulose membrane (gel or slot blot). An AMBIS beta scanner, which measures the radioactive decay of the hybridized probes directly from the nitrocellulose membranes, is used for the quantitative analysis. Standard curves, generated by multiple analyses, are used to correlate CPM measurements made by the beta scanner with relative levels of target HBV DNA. The levels of HBV virion DNA released into the culture medium are analyzed by a slot blot hybridization procedure.
In data set [9] the test system is HBV RI. Put plainly: HBV replication in 2.2.15 cells, intracellular DNA replication intermediates (secondary assay). The conditions noted are these: for pEC50: read-out: HBV RI EC50; for EC90: read-out: HBV RI EC90.
The subject of data set [10] is CEM-SS cells. Put plainly: CEM-SS MTT assay, cytotoxicity (Table I). The data set is classed as cell-based, human. Background: Tetrazolium dyes change colour on reduction, which living cells bring about.
The subject of data set [11] is HIV-1. The conditions noted are these: for protecting cells against HIV infection: text summary of Table I.
The test system of data set [12] is HIV-1. Nature of the data set: microbe, parasite or virus in culture. As to conditions: Human immunodeficiency virus 1, CEM-SS.
The subject of data set [13] is G910-6 HIV viral strain. Put plainly: In vitro MTT assay, AZT-resistant isolate (Example 37, FIGS. 1). The conditions noted are these: G910-6 strain, FIGS. 1(a)-1(e).
The subject of data set [14] is H112-2 HIV viral strain. Put plainly: In vitro MTT assay, isolate not pre-treated with AZT (Example 37, FIGS. 2). The conditions noted are these: H112-2 strain; FIGS. 2(a)-2(e).

The structures appear in SMILES notation. pEC50, pIC50: −log10 of the molar value. Like-named read-outs stand apart in the source and are kept apart here.

Usually pIC50 stands for the negative decadic logarithm of the IC50, by convention in mol/L. What is called pEC50 is the EC50 on a negative log10 scale, so that one unit is a factor of ten. As usually defined, the EC90 is the point of the concentration-response curve where the effect stands at 90%. The term melting point denotes the temperature, or range, at which the solid turns liquid. Usually EC50 stands for the concentration giving half of the maximal effect. A higher EC50 goes with a less potent agent. The IC50 is the concentration that inhibits the measured activity by half. Lower therefore signals greater potency.

As for `CCCc1cc(=O)oc2c3c(c4c(c12)OC(C)(C)C=C4)OCC(C)C3=O` (racemic) [(±)-15f], the pIC50 was 3.57 in data set [1] (Table II, read-out: HBV IC50); 3.52 in data set [1] (Table IV, HBV RI columns, read-out: HBV RI IC50); 3.52 in data set [1] (Table IV, HBV Virion columns, read-out: HBV Virion IC50). For the same compound, in [2], the “HCMV EC50” value is over 100 µg/mL. Further, the “HCMV IC50” value in data set [3] is over 100 µg/mL. For the same compound, the “EBV EC50” value in data set [4] is over 50 µg/mL. Also, the “EBV IC50” value in data set [5] was over 50 µg/mL. In addition, the “VZV EC50” value in [6] is over 20 µg/mL. Also, the “VZV IC50” value in data set [7] is 60.0 µg/mL. Further, the pEC50 was 6.17 in data set [8] (read-out: HBV EC50, Table II); 6.09 in data set [8] (read-out: HBV Virion EC50, Table IV); 5.24 in [9] (Table IV). Moreover, the EC90 in data set [8] (read-out: HBV Virion EC90, Table IV) turned out to be 5 µM; in data set [9] (Table IV), 15 µM. Besides, in data set [8], the “activity in primary assay (HBV virion)” value is reported as “active”. Besides, the “activity in secondary assay (HBV RI)” value in data set [9] (text summary of Table IV) is on record as “active”.
`CCCc1cc(=O)oc2c(C(=O)[C@@H](C)[C@H](C)O)c(O)c3c(c12)OC(C)(C)C=C3` (relative stereo) [(±)-8b, 6,6-Dimethyl-9-hydroxy-10-12(S*)-methyl-3(S*)-hydroxybutyro]4-propyl-2H,6H-benzo[1,2-b:3,4-b′]dipyran-2-one] showed a melting point of 115 °C. This compound also had a pIC50 in [10] (Homo sapiens) of 4.67. For the same compound, the “Maximum Protection (%)” value in data set [11] (CEM-SS MTT assay) came to 81%. Further, the “protecting cells against HIV infection” value in [11] was “highly efficacious”. Besides, the pEC50 in data set [12] is 5.64.
For the compound `CCCc1cc(=O)oc2c3c(c4c(c12)OC(C)(C)C=C4)O[C@H](C)[C@@H](C)[C@@H]3O` (racemic) [(±)-calanolide A, (±)-Calanolide A], the “antiviral effect (reducing viral CPE)” value in data set [13] is “effective in reducing viral CPE”; in [14], “nearly as effective as (+)-calanolide A”.
For the compound `CCCc1cc(=O)oc2c(C(=O)[C@@H](C)[C@@H](C)O)c(O)c3c(c12)OC(C)(C)C=C3` (relative stereo) [(±)-8a, 6,6-Dimethyl-9-hydroxy-10-[2(S*)-methyl-3(R*)-hydroxybutyro-]4-propyl-2H,6H-benzo[1,2-b:3,4b′]dipyran-2-one], the melting point lay in the range of 66 to 67 °C. The same compound gave a pIC50 in data set [10] (Homo sapiens) of 4.62. The “Maximum Protection (%)” value in [11] (CEM-SS MTT assay) amounted to 84%. Besides, in [11], the “protecting cells against HIV infection” value is “highly efficacious”. This compound gave a pEC50 in data set [12] of 5.21.
In the case of `Cc1cn([C@H]2C[C@H](N=[N+]=[N-])[C@@H](CO)O2)c(=O)[nH]c1=O` [AZT, reference compound], the “antiviral effect (reducing viral CPE)” value in [13] is “little to no effect”; in [14], “sensitive to AZT”.
As to `CCCc1cc(=O)oc2c3c(c4c(c12)OC(C)(C)C=C4)OC(C)C(C)(C)C3=O` (racemic) [(±)-15a, (±)-10,11-Dihydro-6,6,10,11,11-pentamethyl-4-propyl-2H,6H, 12H-benzo[1,2-b:3,4-b′:5,6-b″]tripyran-2,12-dione], the pIC50 in data set [10] (Homo sapiens) was 4.71; in data set [1] (Homo sapiens, Table II, read-out: HBV IC50), 2.70; in [1] (Homo sapiens, Table IV, HBV RI columns, read-out: HBV RI IC50) it was 2.75; in data set [1] (Homo sapiens, Table IV, HBV Virion columns, read-out: HBV Virion IC50) it was 2.75. The same compound gave an EC50 in [2] (Human betaherpesvirus 5, Fibroblast) of over 100 µg/mL. This compound also returned an IC50 in data set [3] (Homo sapiens, Fibroblast) of over 100 µg/mL. In addition, the pEC50 in data set [8] (Hepatitis B virus, read-out: HBV EC50) was 5.70; in data set [8] (Hepatitis B virus, read-out: HBV Virion EC50), 5.55; in data set [9] (Hepatitis B virus) it was under 4.52. For the same compound, the EC90 in data set [8] (Hepatitis B virus, read-out: HBV EC90) is 16 µM; in data set [8] (Hepatitis B virus, read-out: HBV Virion EC90) it was 20 µM; in data set [9] (Hepatitis B virus), over 30 µM. For the same compound, the “activity in primary assay (HBV virion)” value in [8] is recorded as “active”.
With `CCCc1cc(=O)oc2c3c(c4c(c12)OC(C)(C)CC4)OC(C)C(C)C3=O` (racemic) [(±)-18a, (±)-10,11-trans4-Propyl-7,8,10,11-tetrahydro-6,6,10,11-tetramethyl-2H,6H,12H-benzo [1,2-b:3,4-b′5,6-b″]tripyran-2,12-dione], the pIC50 in [10] is 5.04; in [1] (Table II, read-out: HBV IC50), 4.06. Besides, in data set [2], the “HCMV EC50” value was over 4.0 µg/mL. Moreover, the “HCMV IC50” value in [3] worked out at 19.5 µg/mL. In data set [4], the “EBV EC50” value is 24.5 µg/mL. Moreover, in data set [5], the “EBV IC50” value was over 50 µg/mL. For the same compound, the “VZV EC50” value in data set [6] stood at 15.4 µg/mL. Also, the “VZV IC50” value in data set [7] came to 33.3 µg/mL. Moreover, the pEC50 in data set [11] (CEM-SS MTT assay) is 5.61; in data set [8] (read-out: HBV EC50, Table II), under 5.00. Further, in data set [11] (CEM-SS MTT assay), the “Maximum Protection (%)” value was determined as 60%.
As to `CCCc1cc(=O)oc2c3c(c4c(c12)OC(C)(C)C=C4)OC(C)=C(C)C3O` (stereo not shown) [Compound 6, 12-hydroxy-6,6,10,11-tetramethyl-4-propyl-2H,6H,12H-benzo[1,2-b:3,4-b′:5,6-b″]tripyran-2-one], the melting point fell in the range of 176 to 177 °C.
